Among the data in patent US20250145589A1, “PYRIDINE DERIVATIVE AND USE THEREOF” (SICHUAN HUIYU PHARMACEUTICAL CO., LTD., priority 2021, published 2025) are IC50 values, retold here.

Molecules are shown by their SMILES. pIC50: −log10 of the molar value.

In test [1] the target is KRAS^G12C-SOS1 (Homo sapiens (Human), UniProt P01116, G12C). Nature of the test: HTRF KRAS G12C/SOS1 binding assay. The following applies: Table 5. The method in brief: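 Compound was serially diluted five-fold over eight points, with a 2 mM DMSO stock. After anti-tag-Tb3+ and anti-tag-XL665 were added, plates were incubated 3 h at 4 °C and read by HTRF (ex 337 nm, em 620/665 nm ratio). IC50 values come from four-parameter variable-slope fits.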

Test [2] concerns NCI-H358-AMGR drug-resistant cell line. Nature of the test: NCI-H358-AMGR drug-resistant cell proliferation inhibitory activity test. The following applies: 72 h; NCI-H358-AMGR drug-resistant cells, 3 days incubation, CellTiter-Glo. Format: cell-based. The method in brief:
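Luminescent CellTiter-Glo read-out after 3-day, 37° C compound exposure (8 points, 5-fold series) of AMG510-resistant NCI-H358 cells plated at 4×10^3 per well.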

For test [3], the system named is MIA PaCa-2 cells (KRAS G12C mutant). The test is described as follows: MIA PaCa-2 cell anti-proliferation (CellTiter-Glo). Format: cell-based. The following applies: Homo sapiens, 72 h; MIA Paca-2 cells, 3 days, Table 7; read-out: MIA PaCa-2 (IC50). The method in brief:
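Viable-cell luminescence (CellTiter-Glo, ≥30 min at 25 °C) measured after a 3-day, 37 °C exposure to compounds at 9 points, 4-fold spaced, in DMEM containing 10% FBS plus 2.5% horse serum. IC50 derived versus no-inhibitor wells.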

For test [4], the target named is PI3Kδ (Homo sapiens (Human), UniProt O00329). Nature of the test: Inhibition of PI3Kδ efficacy assay (ADP-Glo kinase assay). Format: biochemical. Conditions: Table 4; read-out: PI3Kδ inhibitory activity (IC50). The procedure, abridged: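 Luminescent ADP-Glo readout of PI3Kδ: after a 60 min RT reaction with PI/ATP substrate, ATP depletion (40 min) and ADP detection (40 min) steps followed. Compounds tested as eight five-fold serial dilutions; inhibition rates fitted to log(inhibitor) vs. response, variable slope, for IC50.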

Test [5] concerns the target PI3Kα (Homo sapiens (Human), UniProt P42336). Nature of the test: Inhibition of PI3Kα efficacy assay (ADP-Glo kinase assay). Format: biochemical. Conditions: Table 4; read-out: PI3Kα inhibitory activity (IC50). The procedure, abridged:
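ADP-Glo luminescent detection of ADP from PI3Kα acting on PI substrate with ATP, 60 min at RT; compounds in 8-point five-fold serial dilution from 2 mM DMSO stock. IC50 from four-parameter variable-slope fit.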

Chain of KRAS^G12C-SOS1 (P01116-2 other isoform, or with tags, fused parts or gaps G12C): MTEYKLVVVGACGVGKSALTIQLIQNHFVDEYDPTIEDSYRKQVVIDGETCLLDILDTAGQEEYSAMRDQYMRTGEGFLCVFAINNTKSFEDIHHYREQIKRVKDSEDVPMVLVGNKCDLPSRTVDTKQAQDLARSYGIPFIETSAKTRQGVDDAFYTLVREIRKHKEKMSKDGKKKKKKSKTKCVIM
Chain of PI3Kδ (O00329 whole entry): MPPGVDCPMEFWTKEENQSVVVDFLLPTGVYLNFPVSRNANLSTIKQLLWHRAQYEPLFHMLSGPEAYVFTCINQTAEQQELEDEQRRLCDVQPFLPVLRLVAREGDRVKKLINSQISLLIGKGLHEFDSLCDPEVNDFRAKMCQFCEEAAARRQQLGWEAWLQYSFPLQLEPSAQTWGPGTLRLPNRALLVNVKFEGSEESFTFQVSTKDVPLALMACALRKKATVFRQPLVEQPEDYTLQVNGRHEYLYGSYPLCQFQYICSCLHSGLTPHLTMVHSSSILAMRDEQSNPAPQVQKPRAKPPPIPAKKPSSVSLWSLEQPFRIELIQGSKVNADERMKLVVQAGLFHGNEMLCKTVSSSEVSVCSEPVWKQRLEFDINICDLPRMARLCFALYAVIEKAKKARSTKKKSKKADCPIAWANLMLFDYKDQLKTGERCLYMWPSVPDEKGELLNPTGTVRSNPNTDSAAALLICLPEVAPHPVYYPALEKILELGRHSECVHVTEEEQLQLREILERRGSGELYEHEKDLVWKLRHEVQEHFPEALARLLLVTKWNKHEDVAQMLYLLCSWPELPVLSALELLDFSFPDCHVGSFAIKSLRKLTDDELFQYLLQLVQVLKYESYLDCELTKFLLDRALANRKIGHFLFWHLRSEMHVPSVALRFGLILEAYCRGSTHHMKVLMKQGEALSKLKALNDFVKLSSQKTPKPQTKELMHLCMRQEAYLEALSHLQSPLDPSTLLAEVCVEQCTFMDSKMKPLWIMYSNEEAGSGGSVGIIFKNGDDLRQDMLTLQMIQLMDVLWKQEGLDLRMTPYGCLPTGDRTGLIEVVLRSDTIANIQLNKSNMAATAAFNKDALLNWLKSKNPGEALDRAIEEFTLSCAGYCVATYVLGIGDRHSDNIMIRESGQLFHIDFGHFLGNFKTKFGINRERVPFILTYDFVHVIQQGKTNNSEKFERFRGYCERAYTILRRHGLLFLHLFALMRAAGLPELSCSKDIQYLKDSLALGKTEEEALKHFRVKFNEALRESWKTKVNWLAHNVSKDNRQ
Chain of PI3Kδ (P27986 whole entry partner): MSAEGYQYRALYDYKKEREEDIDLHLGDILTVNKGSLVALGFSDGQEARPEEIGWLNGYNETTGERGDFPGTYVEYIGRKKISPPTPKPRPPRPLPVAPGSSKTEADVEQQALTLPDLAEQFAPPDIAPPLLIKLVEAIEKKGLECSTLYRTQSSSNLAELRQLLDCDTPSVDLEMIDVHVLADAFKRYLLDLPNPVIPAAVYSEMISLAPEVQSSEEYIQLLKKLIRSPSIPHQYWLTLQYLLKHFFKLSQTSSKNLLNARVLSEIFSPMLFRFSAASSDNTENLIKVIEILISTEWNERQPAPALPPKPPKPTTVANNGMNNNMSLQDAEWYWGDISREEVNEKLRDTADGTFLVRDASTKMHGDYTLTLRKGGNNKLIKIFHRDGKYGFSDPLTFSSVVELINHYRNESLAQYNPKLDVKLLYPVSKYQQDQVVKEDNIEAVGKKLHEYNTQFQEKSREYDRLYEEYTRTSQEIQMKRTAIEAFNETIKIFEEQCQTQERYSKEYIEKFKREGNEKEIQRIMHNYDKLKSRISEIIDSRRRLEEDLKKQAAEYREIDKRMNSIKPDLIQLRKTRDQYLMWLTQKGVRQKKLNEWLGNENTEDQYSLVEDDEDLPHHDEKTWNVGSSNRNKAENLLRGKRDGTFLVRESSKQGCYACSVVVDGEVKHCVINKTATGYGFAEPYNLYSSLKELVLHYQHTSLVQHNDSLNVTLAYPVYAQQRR
Chain of PI3Kα (P42336 whole entry): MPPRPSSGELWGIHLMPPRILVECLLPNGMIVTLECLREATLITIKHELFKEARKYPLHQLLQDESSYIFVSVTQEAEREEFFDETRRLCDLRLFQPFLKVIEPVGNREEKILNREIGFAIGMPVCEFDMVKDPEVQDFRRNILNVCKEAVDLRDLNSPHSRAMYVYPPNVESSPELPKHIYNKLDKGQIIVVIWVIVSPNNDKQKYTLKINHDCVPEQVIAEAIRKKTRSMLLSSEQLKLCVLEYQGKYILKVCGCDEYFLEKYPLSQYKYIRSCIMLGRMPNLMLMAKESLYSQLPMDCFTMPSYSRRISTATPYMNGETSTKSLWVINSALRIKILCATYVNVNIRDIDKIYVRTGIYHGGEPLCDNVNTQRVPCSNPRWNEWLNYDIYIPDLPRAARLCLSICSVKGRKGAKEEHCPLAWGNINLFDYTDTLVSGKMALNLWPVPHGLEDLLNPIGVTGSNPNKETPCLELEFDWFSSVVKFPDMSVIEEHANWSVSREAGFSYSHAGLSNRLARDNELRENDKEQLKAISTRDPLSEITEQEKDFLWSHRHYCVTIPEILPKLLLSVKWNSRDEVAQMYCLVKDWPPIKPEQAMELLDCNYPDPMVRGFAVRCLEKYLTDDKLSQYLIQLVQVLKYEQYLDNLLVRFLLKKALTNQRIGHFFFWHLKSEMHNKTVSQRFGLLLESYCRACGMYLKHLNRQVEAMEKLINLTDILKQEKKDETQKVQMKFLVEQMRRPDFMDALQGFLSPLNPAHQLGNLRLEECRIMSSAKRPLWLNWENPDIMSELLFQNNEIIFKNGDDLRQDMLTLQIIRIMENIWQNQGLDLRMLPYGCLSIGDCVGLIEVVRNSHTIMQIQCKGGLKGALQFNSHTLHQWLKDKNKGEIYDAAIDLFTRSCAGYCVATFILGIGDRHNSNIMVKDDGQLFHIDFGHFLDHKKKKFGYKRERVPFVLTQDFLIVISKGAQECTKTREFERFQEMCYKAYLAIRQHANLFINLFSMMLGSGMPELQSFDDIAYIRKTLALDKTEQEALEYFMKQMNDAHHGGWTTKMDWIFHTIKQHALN
Chain of PI3Kα (P27986 whole entry partner): as the sequence (P27986 whole entry partner) above

As to `COc1ncc(-c2ccc3ncnc(N4CCN(C(=O)/C=C/C(C)=O)CC4)c3n2)cc1NS(=O)(=O)c1ccncc1F` [Example 220, (E)-3-fluoro-N-(2-methoxy-5-(4-(4-(4-oxopent-2-enoyl)piperazin-1-yl)pyrido[3,2-d]pyrimidin-6-yl)pyridin-3-yl) pyridine-4-sulfonamide], the pIC50 in test [1] was 6.56; in test [2], 6.68; in test [3] it was 7.23; in test [4], 7.94; in test [5] it was 8.96.

On to `COc1ncc(-c2ccc3ncnc(N4CCN(C(=O)/C=C/C(C)=O)CC4)c3n2)cc1NS(=O)(=O)c1c(Cl)cncc1Cl` [Example 224, (E)-3,5-dichloro-N-(2-methoxy-5-(4-(4-(4-oxopent-2-enoyl)piperazin-1-yl)pyrido[3,2-d]pyrimidin-6-yl)pyridin-3-yl) pyridine-4-sulfonamide], for which the pIC50 in test [1] was 6.73; in test [2] it was 6.66; in test [3] it was 7.10; in test [4] it was 7.62; in test [5], 8.96.

In the case of `COc1ncc(-c2ccc3ncnc(N4CCN(C(=O)/C=C/C(C)=O)CC4)c3n2)cc1NS(=O)(=O)c1c(F)cccc1Cl` [Example 225, (E)-2-chloro-6-fluoro-N-(2-methoxy-5-(4-(4-(4-oxopent-2-enoyl)piperazin-1-yl)pyrido[3,2-d]pyrimidin-6-yl)pyridin-3-yl) benzene-sulfonamide], the pIC50 in test [1] was 6.96; in test [2], 7.46; in test [3], 7.81; in test [4], 8.05; in test [5] it was 9.30.

Consider `COc1ncc(-c2ccc3ncnc(N4CCN(C(=O)/C=C/C(C)=O)[C@H](C)C4)c3n2)cc1NS(=O)(=O)c1ccccc1F` [Example 228, (R,E)-2-fluoro-N-(2-methoxy-5-(4-(3-methyl-4-(4-oxopent-2-enoyl)piperazin-1-yl)pyrido[3,2-d]pyrimidin-6-yl)pyridin-3-yl)benzene-sulfonamide], for which the pIC50 in test [1] was 6.53; in test [2] it was 7.39; in test [3] it was 7.47; in test [4] it was 7.80; in test [5], 8.55.

In the case of `COc1ncc(-c2ccc3ncnc(C4CCN(C(=O)/C=C/C(C)=O)CC4)c3n2)cc1NS(=O)(=O)c1sc(C)nc1C` [Example 230, (E)-N-(2-methoxy-5-(4-(1-(4-oxopent-2-enoyl)piperidin-4-yl)pyrido[3,2-d]pyrimidin-6-yl)pyridin-3-yl)-2,4-dimethylthiazol-5-sulfonamide], the negative logarithm of the IC50 (pIC50) in test [1] was 6.31; in test [2] it was 7.57; in test [3], 7.62; in test [4], 8.33; in test [5], 8.59.

Regarding `COc1ncc(-c2ccc3ncnc(C4CCN(C(=O)/C=C/C(C)=O)CC4)c3n2)cc1NS(=O)(=O)c1c(F)cc(F)cc1F` [Example 231, (E)-2,4,6-trifluoro-N-(2-methoxy-5-(4-(1-(4-oxopent-2-enoyl)piperidin-4-yl)pyrido[3,2-d]pyrimidin-6-yl)pyridin-3-yl)benzenesulfonamide], the pIC50 is 6.33 in test [1]; 7.67 in test [2]; 7.88 in test [3]; 7.79 in test [4]; 8.44 in test [5].

For `COc1ncc(-c2ccc3ncnc(C4CCN(C(=O)/C=C/C(C)=O)CC4)c3n2)cc1NS(=O)(=O)c1ccccc1F` [Example 232, (E)-2-fluoro-N-(2-methoxy-5-(4-(1-(4-oxopent-2-enoyl)piperidin-4-yl)pyrido[3,2-d]pyrimidin-6-yl)pyridin-3-yl)benzenesulfonamide], the negative logarithm of the IC50 (pIC50) was 6.57 in test [1]; 7.36 in test [2]; 7.75 in test [3]; 7.84 in test [4]; 8.70 in test [5].

As to `COc1ncc(-c2ccc3ncnc(C4CCN(C(=O)/C=C/C(C)=O)CC4)c3n2)cc1NS(=O)(=O)c1c(F)cccc1F` [Example 233, (E)-2,6-difluoro-N-(2-methoxy-5-(4-(1-(4-oxopent-2-enoyl)piperidin-4-yl)pyrido[3,2-d]pyrimidin-6-yl)pyridin-3-yl)benzenesulfonamide], the pIC50 is 6.69 in test [1]; 7.28 in test [2]; 7.85 in test [3]; 7.50 in test [4]; 8.40 in test [5].

On to `COc1ncc(-c2ccc3ncnc(C4CCN(C(=O)/C=C/C(C)=O)CC4)c3n2)cc1NS(=O)(=O)c1ccc(F)cc1F` [Example 234, (E)-2,4-difluoro-N-(2-methoxy-5-(4-(1-(4-oxopent-2-enoyl)piperidin-4-yl)pyrido[3,2-d]pyrimidin-6-yl)pyridin-3-yl)benzenesulfonamide], for which the pIC50 in test [1] is 6.53; in test [2], 7.24; in test [3] it was 7.83; in test [4] it was 7.70; in test [5], 8.38.
